A value given as a limit tells only on which side of the number the result lay.

In the experiment the target is T1, PD-1/PD-L1 (Homo sapiens, UniProt Q9NZQ7).
T1 construct: purchased CisBio
The experiment is described as follows: PD1-PDL1 HTRF assay. The note with it: PD-1/PD-L1 homogenous time-resolved fluorescence (HTRF) binding assay; Tag1-PDL1 5 nM, Tag2-PD1 50 nM. A digest of the protocol:
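Compound (8 concentrations) was preincubated 15 min at room temperature with Tag1-PD-L1 and Tag2-PD-1, added as 5 nM and 50 nM solutions. Eu-labelled anti-Tag1 and XL665-labelled anti-Tag2 were then added for 1 h, and the 665/620 nm ratio (×10^4; excitation 320 nm) was fitted to the Hill equation for IC50.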

T1 sequence (Q9NZQ7 19-238 limits assumed): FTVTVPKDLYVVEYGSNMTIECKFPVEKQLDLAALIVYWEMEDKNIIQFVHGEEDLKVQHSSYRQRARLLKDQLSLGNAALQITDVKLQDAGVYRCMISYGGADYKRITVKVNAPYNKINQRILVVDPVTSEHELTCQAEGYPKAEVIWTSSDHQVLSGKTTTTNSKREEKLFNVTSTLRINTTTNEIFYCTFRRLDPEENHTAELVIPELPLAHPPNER

Consider `Cc1c(-c2ccc(CNC[C@@H]3CCC(=O)N3)cc2)cccc1-c1cccc(-c2ccn3nc(CNC[C@@H]4CCC(=O)N4)nc3c2)c1C` [Example 99, (S)-5-((((21,2″-dimethyl-3″-(2-(((((S)-5-oxopyrrolidin-2-yl)methyl)amino)methyl)-[1,2,4]triazolo[1,5-a]pyridin-7-yl)-[1,1′:3′,1″-terphenyl]-4-yl)methyl)amino)methyl)pyrrolidin-2-one], for which the IC50 was not above 10 nM.

Turning to `Cc1c(NC(=O)c2ccc(CNCCO)cn2)cccc1-c1cccc(-c2ccn3nc(CNCCO)nc3c2)c1C` [Example 100, 5-(((2-hydroxyethyl)amino)methyl)-N-(3′-(2-(((2-hydroxyethyl)amino)methyl)-[1,2,4]triazolo[1,5-a]pyridin-7-yl)-2,2′-dimethyl-[1,1′-biphenyl]-3-yl)picolinamide], the IC50 is not above 10 nM. The result for `Cc1c(NC(=O)c2ccc(CNCCO)cc2)cccc1-c1cccc(-c2ccn3nc(CNCCO)nc3c2)c1C` [Example 101, 4-(((2-hydroxyethyl)amino)methyl)-N-(3′-(2-(((2-hydroxyethyl)amino)methyl)-[1,2,4]triazolo[1,5-a]pyridin-7-yl)-2,2′-dimethyl-[1,1′-biphenyl]-3-yl)benzamide] reads not above 10 nM; that for `Cc1c(-c2ccc(CNCCO)cc2)cccc1-c1cccc(-c2ccn3nc(CNC[C@@H]4CCC(=O)N4)nc3c2)c1C` [Example 102, (S)-5-((((7-(4″-(((2-hydroxyethyl)amino)methyl)-2,2′-dimethyl-[1,1′:3′,1″-terphenyl]-3-yl)-[1,2,4]triazolo[1,5-a]pyridin-2-yl)methyl)amino)methyl) pyrrolidin-2-one], 10 to 100 nM; that for `Cc1c(NC(=O)c2ccc(CNCCO)cc2)cccc1-c1cccc(-c2ccn3nc(CNC[C@@H]4CCC(=O)N4)nc3c2)c1C` [Example 103, (S)—N-(2,2′-dimethyl-3′-(2-((((5-oxopyrrolidin-2-yl)methyl)amino)methyl)-[1,2,4]triazolo[1,5-a]pyridin-7-yl)-[1,1′-biphenyl]-3-yl)-4-(((2-hydroxyethyl)amino)methyl)benzamide], 100 to 1000 nM.

`OCCNCc1ccc(-c2cccc(-c3cccc(-c4ccn5nc(CNCCO)nc5c4)c3Cl)c2Cl)cc1` [Example 104, 2-(((2′,2″-dichloro-3″-(2-(((2-hydroxyethyl)amino)methyl)-[1,2,4]triazolo[1,5-a]pyridin-7-yl)-[1,1′:3′,1″-terphenyl]-4-yl)methyl)amino)ethan-1-ol] returned an IC50 not above 10 nM.

On to `O=C1CC[C@@H](CNCc2ccc(-c3cccc(-c4cccc(-c5ccn6nc(CNC[C@@H]7CCC(=O)N7)nc6c5)c4Cl)c3Cl)cc2)N1` [Example 105, (S)-5-((((21,2″-dichloro-3″-(2-(((((S)-5-oxopyrrolidin-2-yl)methyl)amino)methyl)-[1,2,4]triazolo[1,5-α]pyridin-7-yl)-[1,1′:3′,1″-terphenyl]-4-yl)methyl)amino)methyl)pyrrolidin-2-one], for which the IC50 is not above 10 nM.

As to `CC(C)(CO)NCc1ccc(-c2cccc(-c3cccc(-c4ccn5nc(CNC(C)(C)CO)nc5c4)c3Cl)c2Cl)cc1` [Example 106, 2-(((21,2″-dichloro-3″-(2-(((1-hydroxy-2-methylpropan-2-yl)amino)methyl)-[1,2,4]triazolo[1,5-a]pyridin-7-yl)-[1,1′:3′,1″-terphenyl]-4-yl)methyl)amino)-2-methylpropan-1-ol], the IC50 is not above 10 nM. The result for `CC(=O)NCCNCc1ccc(-c2cccc(-c3cccc(-c4ccn5nc(CNCCNC(C)=O)nc5c4)c3Cl)c2Cl)cc1` [Example 109, N-(2-(((7-(4″-(((2-acetamidoethyl)amino)methyl)-2,2′-dichloro-[1,1′:3′,1″-terphenyl]-3-yl)-[1,2,4]triazolo[1,5-a]pyridin-2-yl)methyl)amino)ethyl)acetamide] reads not above 10 nM; that for `OCCCNCc1ccc(-c2cccc(-c3cccc(-c4ccn5nc(CNCCCO)nc5c4)c3Cl)c2Cl)cc1` [Example 111, 3-(((2′,2″-dichloro-3″-(2-(((3-hydroxypropyl)amino)methyl)-[1,2,4]triazolo[1,5-a]pyridin-7-yl)-[1,1′:3′,1″-terphenyl]-4-yl)methyl)amino)propan-1-ol], not above 10 nM.

Turning to `CC(C)(CO)NCc1ccc(-c2cccc(-c3cccc(-c4ccn5nc(CNCCO)nc5c4)c3Cl)c2Cl)cc1` [Example 112, 2-(((2′,2″-dichloro-3″-(2-(((2-hydroxyethyl)amino)methyl)-[1,2,4]triazolo[1,5-a]pyridin-7-yl)-[1,1′:3′,1″-terphenyl]-4-yl)methyl)amino)-2-methylpropan-1-ol], the IC50 fell in the range of 10 to 100 nM. The result for `OCCNCc1nc2cc(-c3cccc(-c4cccc(-c5ccc(CN6CCC[C@H]6CO)cc5)c4Cl)c3Cl)ccn2n1` [Example 113, (S)-2-(((7-(2,2′-dichloro-4″-((2-(hydroxymethyl)pyrrolidin-1-yl)methyl)-[1,11:31,1″-terphenyl]-3-yl)-[1,2,4]triazolo[1,5-a]pyridin-2-yl)methyl)amino)ethan-1-ol] reads not above 10 nM; that for `OCCNCc1nc2cc(-c3cccc(-c4cccc(-c5ccc(CN6CCC[C@@H]6CO)cc5)c4Cl)c3Cl)ccn2n1` [Example 114, (R)-2-(((7-(2,2′-dichloro-4″-((2-(hydroxymethyl)pyrrolidin-1-yl)methyl)-[1,11:3′,1″-terphenyl]-3-yl)-[1,2,4]triazolo [1,5-a]pyridin-2-yl)methyl)amino)ethan-1-ol], not above 10 nM; that for `OCCCNCc1ccc(-c2cccc(-c3cccc(-c4ccn5nc(CNCCO)nc5c4)c3Cl)c2Cl)cc1` [Example 115, 3-(((21,2″-dichloro-3″-(2-(((2-hydroxyethyl)amino)methyl)-[1,2,4]triazolo[1,5-a]pyridin-7-yl)-[1,11:31,1″-terphenyl]-4-yl)methyl)amino)propan-1-ol], not above 10 nM. With `CC(C)(CO)NCc1nc2cc(-c3cccc(-c4cccc(-c5ccc(CNCCO)cc5)c4Cl)c3Cl)ccn2n1` [Example 116, 2-(((7-(2,2′-dichloro-4″-(((2-hydroxyethyl)amino)methyl)-[1,1′:31,1″-terphenyl]-3-yl)-[1,2,4]triazolo[1,5-a]pyridin-2-yl)methyl)amino)-2-methylpropan-1-ol] the figure was not above 10 nM.

The term IC50 denotes the concentration that gives 50% inhibition. Higher therefore signals lower potency.

The values are drawn from patent publication US20260265248A1, “NOVEL PD-L1 INHIBITORS” (AFFIRMA BIOTECH S. L., priority 2023, published 2026).
